Results on five molecules are retold here after article PMC10458937, “Triose Phosphate Isomerase Structure-Based Virtual Screening and In Vitro Biological Activity of Natural Products as Leishmania mexicana Inhibitors” (Pharmaceutics, 2023).

In series [1] the test system is L. mexicana MNYC/BZ/62/M379 promastigotes. The series can be described thus: In vitro leishmanicidal evaluation on promastigotes (MTT), strain M379. The format is cell-based. Particulars: read-out: Leishmania mexicana IC50 (µM ± SD) M379. The protocol: (§1) The metabolic activity of the cells was determined using the method of 3-(4,5-Dimethylthiazol-2-yl)-2,5-diphenyltetrazolium bromide (MTT). The half-maximum inhibitory concentration (IC50) was determined using probit analysis. Three independent assays were each performed in triplicate. Biostat software was used to analyze the data for statistically significant data (p < 0.05).

For series [2], the system named is L. mexicana MHOM/MX/2017/UABJO17FCQEPS promastigotes. The series can be described thus: In vitro leishmanicidal evaluation on promastigotes (MTT), strain FCQEPS. Particulars: 48 h, read-out: Leishmania mexicana IC50 (µM ± SD) FCQEPS. The format is cell-based. The protocol:
as §1

Series [3] relates to promastigote of both L. mexicana strains. The series can be described thus: In vitro leishmanicidal activity, promastigote of both L. mexicana strains (abstract). It counts as cell-based, Leishmania mexicana. To be noted: rounded value of the abstract. The protocol: Promastigotes from the reference strain of L. mexicana (MNYC/BZ/62/M379) and the autochthonous isolate of L. mexicana (MHOM/MX/2017/UABJO17FCQEPS) were used in the in vitro studies. Parasites were preserved in RPMI 1640 supplemented with 10% fetal bovine serum (FBS), 100 U/mL penicillin, 100 ug/mL streptomycin, and glutamine (2 mM). The parasites, in their logarithmic growth phase (5 × 10^5 parasites/mL), were incubated in 96-well plates with the compounds under different concentrations (0.78–100 µM) dissolved in dimethyl sulfoxide (DMSO) in a final volume of 200 µL for 48 h at 26 °C. Parasites in the presence of DMSO (0.2%) were included as a negative control. […] The metabolic activity of the cells was determined using the method of 3-(4,5-Dimethylthiazol-2-yl)-2,5-diphenyltetrazolium bromide (MTT). The half-maximum inhibitory concentration (IC50) was determined using probit analysis. Three independent assays were each performed in triplicate. Biostat software was used to analyze the data for statistically significant data (p < 0.05).

A short description of series [4]: Cytotoxicity in murine macrophages (MTT). To be noted: mouse, 37 °C, read-out: J774.2 Cell Line CC50 (µM ± SD). It counts as cell-based, mouse. The protocol:
(§2) This assay was performed on mouse macrophages from the J774.2 cell line that were recloned from the original ascites and solid tumor J774.1 (according to the fabricant). The cells were cultured in RPMI medium supplemented with 10% SFB, […] penicillin, 100 ug/mL streptomycin, and glutamine (2 mM) at 37 °C and in a 5% CO2 atmosphere. The medium was changed at intervals of every 2 to 3 days. […] Cells in the presence of the maximum concentration of DMSO (0.2%) were included as a negative control. The metabolic activity of the cells was determined using the MTT method. The percentage of cell viability was calculated, and the mean cytotoxic concentration (CC50) was determined using probit analysis. Three independent assays were each performed in triplicate. The selectivity index (SI) was calculated for the promastigotes of L. mexicana and the autochthonous isolate (CC50/IC50).

Series [5] concerns J774.2 cell line. The series can be described thus: Cytotoxicity in murine macrophages (MTT). It counts as cell-based, mouse. Particulars: 48 h, 37 °C, read-out: J774.2 Cell Line CC50 (µM ± SD). The method, then:
as §2

The mark [6] stands for this setting: Leishmania mexicana, promastigotes, strain MNYC/BZ/62/M379, 48 h, 26 °C, MTT.
The mark [7] stands for this setting: Leishmania mexicana, promastigotes, strain MHOM/MX/2017/UABJO17FCQEPS, 26 °C, MTT.

Like-named read-outs stand apart in the source and are kept apart here.

As a reminder, the IC50 is the concentration that gives 50% inhibition. As for Glucantime, the IC50 in series [1] (promastigotes, strain MNYC/BZ/62/M379, 48 h, 26 °C, MTT) was 134 ± 2.79 µM; in series [2] (promastigotes, strain MHOM/MX/2017/UABJO17FCQEPS, 26 °C, MTT), 125 ± 11.6 µM; in series [3], 133 µM.
By CC50 is commonly meant the concentration giving 50% cytotoxicity. On to `C[C@H]1[C@H](C)CC[C@]2(C(=O)O)CC[C@]3(C)C(=CC[C@@H]4[C@@]5(C)CC[C@H](O)C(C)(C)[C@@H]5CC[C@]43C)[C@H]12` [Compound B-3, ursolic acid], for which the values for the IC50 in series [1] (setting [6]) and in series [2] (setting [7]) were > 200 µM and 87.2 ± 7.05 µM, respectively. Also, the CC50 at 48 h in series [4] (J774.2 macrophage cells) was found to be 49.2 ± 5.53 µM.
As to `CCc1cc2c(cc1CC)CC(NC[C@H](O)c1ccc(O)c3[nH]c(=O)ccc13)C2` [Compound S-8, indacaterol], the results for the IC50 in series [1] (setting [6]), in series [2] (setting [7]) and in series [3] (Leishmania mexicana) were 55.1 ± 2.34 µM, 56 ± 5.87 µM and 55 µM, respectively. Moreover, the CC50 in series [5] was > 100 µM.
Turning to `CC1(C)[C@@H](O)CC[C@]2(C)[C@H]3C(=O)C=C4[C@@H]5C[C@@](C)(C(=O)O)CC[C@]5(C)CC[C@@]4(C)[C@]3(C)CC[C@@H]12` [Compound S-3, glycyrrhetinic acid], the results for the IC50 in series [1] (setting [6]) and in series [2] (setting [7]) were 44.2 ± 5.03 µM and 145 ± 12.1 µM, respectively. Moreover, the CC50 in series [5] was > 100 µM.
Regarding `CNC(=O)c1cc(Oc2ccc(NC(=O)Nc3ccc(Cl)c(C(F)(F)F)c3)cc2)ccn1` [Compound S-7, sorafenib], the IC50 came out at 24.9 ± 3.08 µM in series [1] (Leishmania mexicana, 48 h) and 166 ± 18.1 µM in series [2] (Leishmania mexicana). Also, the CC50 at 48 h in series [4] was 64.9 ± 9.58 µM.
